According to patent US20140275183A1, “AGENT FOR REDUCING SIDE EFFECTS OF KINASE INHIBITOR” (Ajinomoto Co., Inc., priority 2011, published 2014):

What was measured:
[1] = test system: CDAA diet-induced liver cancer model rats; experiment: CDAA (choline-deficient L-amino acid defined) diet-induced liver cancer model rats, combined intake of sorafenib and BCAA; type: in vivo, Fischer 344 rats
Text: Using CDAA (choline-deficient L-amino acid defined) diet-induced liver cancer model rats, the effects of the combined intake of sorafenib and branched-chain amino acids (BCAA) were investigated. The CDAA diet used a commercially available choline-deficient diet (#518753: Choline deficient and iron supplemented L-amino acid defined rat diet, manufactured by Dyets Inc.).
Six-week old Fischer 344 rats were divided into a CDAA diet intake group, a sorafenib only intake group, and a BCAA combined intake group (N=15 for each group), and the test diet was provided freely. For the CDAA diet intake group, only the CDAA diet was supplied as the test diet. For the sorafenib only intake group, a CDAA diet mixed with an amount of sorafenib tosylate tablets (Nexavar (a registered trademark) tablets 200 mg, manufactured by Bayer Pharma AG) sufficient to provide an intake of sorafenib of 16 mg/kg/day (800 mg/50 kg/day) (hereafter referred to as the “CDAA/sorafenib diet”) was supplied. For the BCAA combined intake group, a diet prepared by mixing the CDAA/sorafenib diet supplied to the sorafenib only intake group with 2.5% by mass of a BCAA formulation (Livact (a registered trademark) granules, manufactured by Ajinomoto Co., Inc.) (hereafter referred to as the “CDAA/sorafenib/BCAA diet”) was supplied. The weight ratio between isoleucine, leucine and valine in the BCAA formulation was 1:2:1.2 (isoleucine:0.952 g, leucine: 1.904 g, and valine: 1.144 g).
Each individual was autopsied either at the time of death or after 56 weeks from the start of the test (from supply of the test diet), and the effect of treatment continuation was investigated on the basis of the hepatic fibrosis inhibitory effect, the hepatocarcinogenesis rate and the survival rate.
Further, the presence or absence of hepatic fibrosis was determined on the basis of the result of Azan staining of a liver tissue section, and the result of measuring the concentration of HYP (hydroxyproline) within the liver. The presence or absence of hepatocarcinogenesis was evaluated by immunostaining a tissue section of the liver with an antibody to the precancerous marker GST-P (glutathione S-transferase placental form), and inspecting the tissue section for the presence of staining.

Huh7 cells = experiment: antitumor action enhancement effect, Huh7 cells implanted subcutaneously in nude mice; type: in vivo, BALB/c nude mice; conditions: sorafenib oral 5 mg/kg for 2 weeks then 30 mg/kg for 5 days, ± feed containing 3% BCAA; three weeks after start; FIG. 3
Method: Huh7 cells were implanted subcutaneously in BALB/c nude mice in an amount of 1×10^7 cell/mouse.
After one week, the mice were split into groups based on tumor diameter, and the groups were subjected to 2 weeks of 5 mg/kg sorafenib oral administration±food supply containing 3% BCAA (with the sorafenib administered 5 days/week).
In the third week of administration, the sorafenib dose was increased from 5 mg/kg to 30 mg/kg, and oral administration was continued for 5 days. During this time, supply of the feed containing 3% BCAA was continued.
Three weeks after the start of administration, the tumor diameter of each group was measured, and the average value+SE for the tumor volume was calculated. The tumor volume was calculated as tumor major axis/2×(minor axis)^2.

[2] = sorafenib 16 mg/kg/day in CDAA diet, with or without 2.5% BCAA formulation

CNC(=O)c1cc(Oc2ccc(NC(=O)Nc3ccc(Cl)c(C(F)(F)F)c3)cc2)ccn1 [sorafenib, 4-[4-[[4-chloro-3-(trifluoromethyl)phenyl]carbamoylamino]phenoxy]-N-methylpyridine-2-carboxamide]
number of rats in which hepatic fibrosis or precancerous lesions were observed, compared with the CDAA diet intake group ([1]; Azan staining, liver HYP, GST-P immunostaining, autopsy at death or after 56 weeks): fewer
bleeding (side effect) [1, 2]: a tendency for bleeding to occur in the gastrointestinal tract, including the anal region, was also observed
loss of appetite (side effect) [1, 2]: a loss of appetite due to gastrostenosis was also noted
redness (cutaneous side effect) [1, 2]: redness was noted not only on the four legs, but also on the trunk and the skin
degree of shrinkage in the tumor volume compared with the control group (Huh7 cells): unchanged
